Reference: patent publication US7863241B2, “Compositions for treatment and prevention of pulmonary conditions” (The Scripps Research Institute, priority 2002, dated 2011)
“Also recorded” adds a separate entry of the source.

Legend:
[1] = biological target: T1, human neutrophil elastase (HNE) (Homo sapiens, UniProt P08246); experiment: Colorimetric assay of human neutrophil elastase inhibition; format: biochemical
T1 sequence (P08246 30-267): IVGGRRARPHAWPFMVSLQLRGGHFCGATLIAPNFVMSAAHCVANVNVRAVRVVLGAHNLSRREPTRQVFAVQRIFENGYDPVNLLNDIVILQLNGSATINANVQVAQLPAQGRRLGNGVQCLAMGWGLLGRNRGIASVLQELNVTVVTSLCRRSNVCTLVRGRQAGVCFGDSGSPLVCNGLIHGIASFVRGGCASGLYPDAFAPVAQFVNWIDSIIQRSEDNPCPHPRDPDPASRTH
Description: A peptide having the following sequence MeO-Suc-Ala-Ala-Pro-Val-pNA (SEQ ID NO:24) was used as an elastase substrate. One hundred (100) μL of a 0.425 mM solution of the SEQ ID NO:24 peptide substrate was placed in a series of microtiter plate wells. Varying amounts of human neutrophil elastase (HNE) were added to the microtiter plate wells. The optical density at 410 nm (OD410) was used to measure elastase activity, and the optical densities observed were plotted versus the amounts of HNE added to generate a standard curve.
To test the ability of a serine elastase inhibitor to inhibit human neutrophil elastase (HNE), a standard amount of 0.125 μg HNE was mixed with increasing amounts of a serine elastase inhibitor before addition of the elastase substrate described in Example 3.
0.02 μg of human neutrophil elastase (HNE), was incubated with 2 mg/ml of Model surfactant mixture, 100 μg/ml of a serine elastase inhibitor, or both Model surfactant mixture and the serine elastase inhibitor together. The HNE activity remaining was assayed using the calorimetric assay described above. The result is represented graphically in FIG. 8.

[2] = test system: elastase activity in rabbit BAL fluids; experiment: Elastase activity in rabbit BAL fluids after addition of serine elastase inhibitor; format: biochemical; conditions: 100 μg/ml inhibitor added to BAL fluids of six anti-BSA/BSA treated rabbits
Description: Six rabbits were treated with 3 mg anti-BSA/kg (rabbits 6098 and 6099) or 5 mg anti-BSA/kg (rabbits 6100-6103) was instilled intratracheally and 10 mg of BSA was given intravenously (6098-6101) to induce respiratory distress. Bronchoalveolar lavage (BAL) fluids were taken from the lungs of these rabbits six hours after the treatment and a colorimetric assay of elastase activity was performed on these BAL fluids. Elastase activity is expressed as the concentration of HNE that gives a corresponding OD at 410 nm. Additionally, the same assay was performed after the addition of 100 μg/ml of a serine elastase inhibitor to the BAL fluids.

[3] = test system: rabbits injured with LPS and PMA; experiment: LPS/PMA-induced pulmonary injury in rabbits (ARDS Rabbit Model), terminal lavage analysis; format: in vivo
Description: The effects of Model surfactant mixture, the serine elastase inhibitor, and the combination of the two on pulmonary inflammation were evaluated on an ARDS Rabbit Model. These experiments are described in details in Examples 8 to 12. Twenty (20) rabbits were divided into five groups for this study. Pulmonary inflammation was induced in Groups 1-4 rabbits from stimulation by lavaging with bacterial lipopolysaccharide (LPS) and, 3 hours later, with phorbol myristate acetate (PMA). Additionally, as treatment, Group 2 rabbits received Model surfactant mixture, Group 3 rabbits received the serine elastase inhibitor, and Group 4 animals received both Model surfactant mixture and the serine elastase inhibitor. Group 5 rabbits were normal rabbits and were used as control. The animals were sacrificed at six (6) hr., the right lower lobe was lavaged three times and the lavage fluids were pooled (terminal lavage) for each animal. The level of injury and the effect of the treatments were measured by the amount of basement membrane protein fragments and red blood cells found in terminal lavage fluids.
LPS: Minn (List Biological). 5 mg vial. Animals were treated by quantitative lavage leaving 120 μg/kg in 8 ml/kg.
PMA: (Sigma) diluted in saline or Model surfactant mixture to 5 μg/mL Used 20 ml/kg/rabbit for lavage, leaving 20% of the dosage in the animal.
Model surfactant mixture: (Discovery Labs) 10 mg/ml. Use 20 ml/kg/rabbit for lavage, leaving 20% of the dosage in the animal.
Serine Elastase Inhibitor. Elafin (Astra-Zeneca) 3 mg/ml stock, dialyzed against saline to remove azide: 1.3 ml/kg Elafin was administered intravenously at 1.5 hr., 0.33 ml/kg was administered intratracheally (×2 sides) at 3 hr., and 0.66 ml/kg was administered intravenously at 4.5 hr.
Twenty NZW rabbits are divided into five (5) treatment groups with four (4) animals each. Lung injury is induced by two lavages with LPS in saline and one PMA treatment administered by lavage at 3 hr. Serine elastase inhibitor and Model surfactant mixture were separately and jointly tested to ascertain the degree to which these factors could reduce symptoms of inflammation. Treatments received by the different groups are as follows:
Group 1: The animals received two lavages with LPS in saline and one PMA treatment administered by lavage at 3 hr. A dosage of ^125I-BSA was given to the animals intravenously at 5.5 hr. and the animals were sacrificed at 6 hr.
Group 2: The animals received two lavages with LPS in saline, one PMA and Model surfactant mixture treatment administered by lavage at 3 hr. A dosage of ^125I-BSA was given to the animals intravenously at 5.5 hr. and the animals were sacrificed at 6 hr.
Group 3: The animals received two lavages with LPS in saline and one PMA treatment administered by lavage at 3 hr. […]

[4] = biological target: T1, human neutrophil elastase (HNE); experiment: Inhibition of HNE by terminal lavage fluid of treated rabbits; format: biochemical; conditions: 0.02 μg HNE with 50 μl terminal lavage fluid of one representative rabbit per group
Description: The presence of elastase inhibitor(s) (or the residual activity) in the terminal lavage fluids prepared as described in Example 8) was tested. 0.02 μg of human neutrophil elastase (HNE), was incubated with 50 μl of terminal lavage fluid of one representative rabbit from each experimental group (Groups 1-5). HNE activities are assayed using the colorimetric assay as described in Example 1. The assay results are presented graphically in FIG. 9.

[5] = test system: rabbits injured with LPS and PMA; experiment: LPS/PMA lung injury in rabbits treated with anti-oxidant catalase; format: in vivo, rabbit; conditions: for Albumin In BALF / BALF RBCs / Compliance / PaCO2 6 hr / PaO2 4.5 hr / PaO2 6 hr / Wet:Dry weight / Gross Pathology / Histologic Pathology: average ± SEM; for Wet:Dry weight: lung; for Gross Pathology / Histologic Pathology: on a scale of 0–4
Description: Procedures employed were similar to those used in the foregoing Examples. Lung injury is induced in rabbits (1.0-1.5 kg) by bronchoalveolar lavage (BAL) using 5 μg/ml bacterial LPS in saline at a dosage of 20 ml/kg. At 2.5 hrs after LPS administration, the rabbits received 20 ml/kg phorbol myristate acetate (PMA) by bronchoalveolar lavage. At 2.5 hours after LPS administration, animals in group 1 received the anti-oxidant catalase intratracheally. Animals in group 2 received catalase intratracheally and intravenously. Animals in group 3 received catalase intratracheally and intravenously, as well as 5mg/ml Model Surfactant Mixture (KL4) intratracheally. Animals in group 4 received no further treatment (control). The rabbits were ventilated at PIP […] PEEP 3 cm H2O pressure. The study was terminated at 6 hrs. Values in Tables 6 and 7 are averages+standard error of the mean (SEM).

Phospholipase A2 (PLA2) = conditions: 30 min incubation, lavage fluid of rabbit 6015, increasing amounts of inhibitor
Description: Terminal lavage fluid was collected from rabbits experiencing pulmonary injury initiated by the intratracheal administration of partially purified antibodies directed against BSA (anti-BSA antibodies). Palmitoyl, oleoyl phosphotidylglycerol (POPG, Avanti Polar Lipids) was added to the lavage fluid as a substrate for detecting PLA2 activity in the lavage fluid. Prior to addition of the POPG substrate, the mixture was adjusted to a final concentration of 10 mM CaCl2, 100 mM KCl and 25 mM Tris-Cl, pH 8.5. This mixture was incubated at 37° C. Aliquots were removed over time and the amount of oleic acid released from the POPG substrate was measured by high pressure liquid chromatography (HPLC). The amount of oleic acid released was quantified from the height of the peak at 4.59 min elution time from a C-18 HPLC column, as measured by the absorbance at 207 nm.
BSA and anti-BSA antibodies were administered to rabbit 6015 and lavage fluids were obtained from rabbit 6015 as described in the previous Example. […] This mixture was incubated for 15 min. at 37° C. before addition of POPG substrate. PLA2 activity was measured using the height of the eluted oleic acid HPLC peak, as described in previous Examples.

[6] = catalase IT & IV (combination: plus 5mg/ml Model Surfactant Mixture IT)

## Elafin (AQEPVKGPVSTKPGSCPIILIRCAMLNPPNRCLKDTDCPGIKKCCEGSCGMACFVPQ) [serine elastase inhibitor, Elafin (Astra-Zeneca) 3 mg/ml stock, dialyzed against saline]
[1]; 0.02 μg HNE, Model surfactant mixture 2 mg/ml, serine elastase inhibitor 100 μg/ml
  HNE activity remaining: Significant inhibition
[1]; 0.125 μg HNE, increasing amounts of inhibitor, in vitro
  HNE activity (OD410) versus log of amount of inhibitor: HNE activity is inhibited in vitro
[2]
  Elastase activity in BAL fluids after added inhibitor: inhibited in five out of the six BAL fluids; also recorded: In all cases, the elastase activity was inhibited
[3]; 6 hr post LPS/PMA injury
  number of RBCs in terminal lavage fluid: greater reduction in injury
[3]; 6 hr post LPS/PMA injury, versus injured untreated group
  amount of protein in terminal lavage fluid: failure of group 3, which received elastase inhibitor alone, to show a reduction in protein levels
[3]; Group 3, 6 hr post LPS/PMA injury
  mean protein value in terminal lavage fluid, one aberrant animal excluded: 1.72 mg/mL
[3]; terminal lavage fluid, LPS/PMA injured rabbits
  basement membrane damage (Western blot of basement membrane proteins in BAL fluid): Amelioration of the damage in the basement membrane is observed
[4]
  inhibition of HNE activity by terminal lavage fluid: highly significant

## catalase
[5]; LPS/PMA injured rabbits, study terminated at 6 hrs
  lung function (overall): significantly improve lung function
[5]; [6]
  Albumin In BALF: 0.50 ± 0.11
  BALF RBCs: 2.3 ± 1.2 ×10^3
  Compliance: 8.4 ± 0.3 ml at 12 cm H2O/Kg
  PaCO2 6 hr: 36 ± 5
  PaO2 4.5 hr: 129 ± 19
  PaO2 6 hr: 124 ± 22
  Wet:Dry weight: 8.0 ± 0.6
  Gross Pathology: 1.1 ± 0.4
  Histologic Pathology: 2.9 ± 0.8
[5]; catalase IT
  Albumin In BALF: 0.65 ± 0.16
  BALF RBCs: 6.1 ± 3.6 ×10^3
  Compliance: 10.1 ± 1.8 ml at 12 cm H2O/Kg
  PaCO2 6 hr: 40 ± 3
  PaO2 4.5 hr: 128 ± 15
  PaO2 6 hr: 119 ± 15
  Wet:Dry weight: 7.4 ± 0.4
  Gross Pathology: 1.6 ± 0.6
  Histologic Pathology: 2.7 ± 0.6

## CCc1c(CC(N)=O)c2cc(OCCCP(=O)(O)O)ccc2n1Cc1ccccc1 [LY311727]
Phospholipase A2 (PLA2)
  PLA2 activity (release of oleic acid from POPG): decreasing amounts of PLA2 activity were observed
